Data published in patent US20100234385A1 (Kaneka Corporation, priority 2006, published 2010).

Legend:
[1] = BH4 concentration in the brain after oral administration for 3 consecutive days to hph-1 mice; conditions: 5 mg/kg oral, 3 consecutive days at 24-hour intervals, 2.5 hours after final dosing, versus non-dose group
Method: The mice were biopsied 2.5 hours after the final dosing, their brains were excised and BH4 levels were quantified in the same manner as Example 1.

[2] = Sawabe et al. 2004, cited from earlier work
melanocytes = assay: Inhibitory effect on melanocytes in vitro; type: cell-based

intracerebral BH4 concentrations [1]	Compound	time of sharp peak of BH4 after administration [2]	time until BH4 concentration returns to the original level ([2]; after administration of BH4)	effects on melanocytes in vitro (melanocytes)
changes are not observed	C[C@H](O)[C@H](O)[C@H]1CNc2nc(N)[nH]c(=O)c2N1 [BH4, L-erythro-5,6,7,8-tetrahydrobiopterin]	0.5 to 1 h	about 4 hours	–
–	6-(L-erythro-1,2-dihydroxypropyl)-pterin or 7-(L-erythro-1,2-dihydroxypropyl)-pterin [biopterin]	–	–	inhibitory effects
